Test results as given in patent US7119256B2, “Gene encoding acetolactate synthase” (priority 2000, dated 2006).

What was measured:
W548L mutant ALS = target: T1, W548L mutant ALS (Oryza sativa subsp. japonica, UniProt Q6K2E8, W548L); experiment: Herbicide sensitivity of crude ALS with W548L mutation only, 1 mM valine; type: biochemical, rice; conditions: crude enzyme
T1 construct: one type of cDNA containing a full length ALS gene could be obtained from a cDNA library derived from the wild type; made in house; host or cells: E. coli JM 109, pGEX-2T backbone (pGEX-2T-wALS); crude enzyme solution
Experimental: (§1) A plasmid having W548L mutant ALS gene or a plasmid having S627I mutant ALS gene was transformed into E. coli strain JM 109. The colonies obtained from transformation were subjected to liquid culture, expression of GST induction protein was induced in the same manner as in Examples 4 and 5, a crude enzyme solution was prepared, and then herbicide sensitivity of ALS was examined in the presence of 1 mM valine.

mutant ALS protein [1] = target: mutant ALS protein (Oryza sativa subsp. japonica, UniProt Q6K2E8, S627I/W548L); experiment: Herbicide sensitivity of ALS partially purified from the resistant mutant (acetoin colorimetric ALS activity); type: biochemical, rice (Kinmaze); parameters: from tissue; host or cells: resistant mutant rice (Kinmaze) cultured cells, liquid culture; ammonium sulfate, Sephadex G-25, HiTrap Q
Experimental: (§2) First, 200 g or more of resistant mutant was prepared by a liquid culture method (no supplementation with bispyribac-sodium), the culture having a composition as shown in Table 1 but without Gelrite. Then, about 150 g of the resistant mutant was homogenized using Hiscotron in a volume of buffer-1 [100 mM potassium phosphate buffer (pH 7.5) containing 20% (v/v) glycerol, 0.5 mM thiamin pyrophosphate (TPP), 10 μM flavin adenine dinucleotide (FAD), 0.5 mM MgCl2, and a volume of polyvinyl polypyrrolidone one-tenth that of tissue volume] 3-fold greater than tissue volume. The homogenate was filtered through nylon gauze, and then centrifuged at 15,000×g for 20 min. Ammonium sulfate was added to the centrifuged supernatant to 50% saturation, and then allowed to stand in ice for approximately 1 hour. The mixture was again centrifuged at 15,000×g for 20 min, and then the precipitated fraction was dissolved in about 30 ml of buffer-2 [10 mM Tris hydrochloric acid buffer (pH 7.5) containing 20% (v/v) glycerol, 0.5 mM TPP and 0.5 mM MgCl2]. […]
(§3) Next, the protein concentration of the crude enzyme solution was measured by the Bradford method according to the manual of Bio-Rad Protein Assay. […]
(§4) ALS activity resulting from the mutant ALS protein contained in the eluted fractions apportioned into each test tube for apportion was measured as follows. A reaction solution to be used in a measurement reaction was prepared by mixing an eluted fraction to be measured with a solution comprising 20 mM sodium pyruvate, 0.5 mM TPP, 0.5 mM MgCl2, 10 μM FAD and 20 mM potassium phosphate buffer (pH 7.5). […] After the eluted fraction to be measured was added, the measurement reaction was performed at 30° C. for 40 to 60 min. […]
(§5) Then, to quantify acetoin contained in the reaction solution, 1 ml of 0.5% (w/v) creatine and 1 ml of 5% (w/v) α-naphthol dissolved in 2.5 N sodium hydroxide was added to the reaction solution, followed by incubation at 37° C. for 10 min. Acetoin was then quantified by color comparison of the absorbance (at 525 nm) of the reaction solution, thereby evaluating ALS activity. […]

[2] = system: wild type (Kinmaze) culture cells; experiment: Growth of wild type rice (Kinmaze) culture cells in liquid medium with herbicide (relative wet weight); type: cell-based, Oryza sativa var. Kinmaze
Experimental: (§6) Approximately 1.5 g (wet weight) of the resistant mutant was transplanted in 200 ml of a Erlenmeyer flask supplemented with 50 ml of a MS-2,4-D liquid medium and bispyribac-sodium at an appropriate concentration, followed by culturing at approximately 27° C. for an appropriate period. The wet weight of the callus was measured periodically. The relative amount of increase was determined based on the wet weight of the transplanted resistant mutant. In addition, the experiment was performed three times with different bispyribac-sodium concentrations, and the standard error was calculated. […] As a control, a similar experiment was conducted using the wild type (Kinmaze).
(§7) The growth rates of the wild type and the resistant mutant were measured as described above except for the use of chlorsulfuron instead of bispyribac-sodium.

S627I mutant ALS = target: T2, S627I mutant ALS (Oryza sativa subsp. japonica, UniProt Q6K2E8, S627I); experiment: Herbicide sensitivity of crude ALS with S627I mutation only, 1 mM valine; type: biochemical, rice; conditions: crude enzyme
T2 construct: one type of cDNA containing a full length ALS gene could be obtained from a cDNA library derived from the wild type; made in house; host or cells: E. coli JM 109, pGEX-2T backbone; crude enzyme solution
Experimental: as §1

mutant ALS protein [3] = experiment: Herbicide sensitivity of ALS partially purified from the resistant mutant (acetoin colorimetric ALS activity); type: biochemical, rice (Kinmaze)
Experimental: as §2, §3, §4, §5

[4] = system: resistant mutant culture cells; experiment: Growth of bispyribac-sodium resistant rice culture cells (resistant mutant) with herbicide (relative wet weight); type: cell-based, Oryza sativa var. Kinmaze
Experimental: Subsequently, the resulting plurality of cell lines were cultured while elevating the concentration of bispyribac-sodium in an orderly manner. […] The bispyribac-sodium resistant culture cells (hereinafter referred to as resistant mutant) were sub-cultured on MS-2,4-D solid media supplemented with 100 μM bispyribac-sodium. Part of the sub-cultured resistant mutant was sampled, added into MS-2,4-D liquid media not supplemented with bispyribac-sodium, and then subjected to suspended cell culture at a cycle of 8 to 10 days.
as §6, §7

mutant ALS protein (Oryza sativa subsp. japonica, UniProt Q6K2E8, S627I/W548L), sequence (Q6K2E8 44-644 W548L/S627I): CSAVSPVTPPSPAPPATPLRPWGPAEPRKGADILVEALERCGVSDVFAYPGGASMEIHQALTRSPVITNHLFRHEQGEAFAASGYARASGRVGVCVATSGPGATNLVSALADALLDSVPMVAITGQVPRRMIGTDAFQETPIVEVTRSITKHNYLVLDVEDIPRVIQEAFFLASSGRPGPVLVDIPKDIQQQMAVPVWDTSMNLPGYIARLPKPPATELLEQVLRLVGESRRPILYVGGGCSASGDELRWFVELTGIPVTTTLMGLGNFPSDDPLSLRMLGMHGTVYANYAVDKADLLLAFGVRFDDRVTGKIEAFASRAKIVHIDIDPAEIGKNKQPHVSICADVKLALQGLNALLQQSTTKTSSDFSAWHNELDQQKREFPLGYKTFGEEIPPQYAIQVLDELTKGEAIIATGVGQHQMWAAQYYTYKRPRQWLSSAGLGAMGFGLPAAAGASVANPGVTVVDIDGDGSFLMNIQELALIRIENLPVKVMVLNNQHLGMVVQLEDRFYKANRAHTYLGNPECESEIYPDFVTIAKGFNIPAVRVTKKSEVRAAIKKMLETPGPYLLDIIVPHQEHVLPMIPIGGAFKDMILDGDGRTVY
T2 sequence (Q6K2E8 44-644 S627I): as the sequence (Q6K2E8 44-644 W548L/S627I) above, with L505W counted along it
T1 sequence (Q6K2E8 44-644 W548L): as the sequence (Q6K2E8 44-644 W548L/S627I) above, with I584S counted along it

Row | Structure (SMILES) | resistance imparted by W548L mutation alone (W548L mutant ALS) | IC50 (mutant ALS protein [1]) [nM] | growth of the wild type (relative weight on day 9) ([2]; 1 nM chlorsulfuron) | resistance imparted by S627I mutation alone (S627I mutant ALS) | RS ratio Resistant mutant: I50 (resistant mutant)/I50 (wild type) (mutant ALS protein [3]) | growth of the resistant mutant (relative weight on day 9) ([4]; 1 μM chlorsulfuron) | growth of the wild type (relative weight on day 8) ([2]; 1 nM bispyribac-sodium) | growth of the wild type (relative weight on day 8) ([2]; 10 nM or more bispyribac-sodium) | growth of the resistant mutant (relative weight on day 8) ([4]; 10 μM bispyribac-sodium) | proliferation of resistant cell lines in the presence of herbicide ([4]; 100 μM bispyribac-sodium)
1 | COc1nc(C)nc(NC(=O)NS(=O)(=O)c2ccccc2Cl)n1 [Chlorsulfuron, chlorsulfuron] | imparted resistance | 92.8 | inhibited | imparted no obvious resistance | 5.36 | strongly inhibited |  |  |  | 
2 | COc1cc(OC)nc(Oc2cccc(Oc3nc(OC)cc(OC)n3)c2C(=O)[O-])n1.[Na+] [Bispyribac-sodium, bispyribac-sodium] | imparted resistance | 421 |  | imparted resistance | 74.8 |  | not inhibited | inhibited | almost none of the growth of the resistant mutant was affected | can proliferate
